Where a SMILES comes first, the peptide text is derived from it. Bridges are numbered along the chain shown (N, C = ends). [ ]: non-standard residue; d: D form. The star is where a group is joined. NMeY = CN[C@@H](Cc1ccc(O)cc1)C(=O)O; NMeF = CN[C@@H](Cc1ccccc1)C(=O)O; OSu = O=C1CCC(=O)N1O*; GABA = NCCCC(=O)O
These molecules were tested against human transferrin receptor (hTfR) (Homo sapiens, UniProt P02786) (assay: SPR measurement of peptide binding to hTfR). Settings: not given.
Source text: Note that ND indicates No Data (here, it means that no data was obtained).

human transferrin receptor (hTfR), sequence (P02786 whole entry): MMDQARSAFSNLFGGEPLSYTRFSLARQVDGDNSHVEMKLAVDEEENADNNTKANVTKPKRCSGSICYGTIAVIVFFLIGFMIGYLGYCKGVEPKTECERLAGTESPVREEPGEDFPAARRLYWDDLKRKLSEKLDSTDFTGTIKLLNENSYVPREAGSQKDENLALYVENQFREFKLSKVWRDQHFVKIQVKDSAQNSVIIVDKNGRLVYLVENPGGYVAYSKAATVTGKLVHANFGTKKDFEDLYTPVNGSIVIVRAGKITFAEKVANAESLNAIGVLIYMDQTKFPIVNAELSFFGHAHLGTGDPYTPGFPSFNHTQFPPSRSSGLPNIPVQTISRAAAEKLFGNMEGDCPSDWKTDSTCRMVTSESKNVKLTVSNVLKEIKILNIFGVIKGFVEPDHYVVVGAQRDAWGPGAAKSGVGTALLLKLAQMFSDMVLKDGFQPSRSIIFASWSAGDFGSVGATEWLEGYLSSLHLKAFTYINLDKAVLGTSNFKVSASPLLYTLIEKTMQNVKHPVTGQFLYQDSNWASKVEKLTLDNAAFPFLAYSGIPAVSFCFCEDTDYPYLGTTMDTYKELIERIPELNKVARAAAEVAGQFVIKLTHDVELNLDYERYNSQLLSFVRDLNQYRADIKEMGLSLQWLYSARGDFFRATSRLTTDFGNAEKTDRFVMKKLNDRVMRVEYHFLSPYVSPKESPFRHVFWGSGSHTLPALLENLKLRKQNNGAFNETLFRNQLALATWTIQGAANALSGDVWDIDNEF

Compound | Kd [nM]
CC[C@H](C)[C@@H]1NC(=O)[C@H](Cc2ccc(O)cc2)NC(=O)[C@H](Cc2ccc(O)cc2)NC(=O)[C@H](CC(N)=O)NC(=O)[C@H](Cc2c[nH]c3ccccc23)NC(=O)[C@H](C(C)C)NC(=O)[C@H](Cc2ccccc2)N(C)C(=O)[C@H](C(C)C)NC(=O)[C@H](C)NC(=O)CSC[C@@H](C(=O)NCC(=O)NCC(=O)NCC(=O)NCC(=O)N[C@@H](CO)C(=O)N[C@@H](CO)C(=O)N[C@@H](CCCCNC(=O)C2CCC(CN3C(=O)C=CC3=O)CC2)C(N)=O)NC(=O)[C@H](Cc2ccc(O)cc2)N(C)C(=O)[C@H](Cc2ccc(O)cc2)NC(=O)[C@H](CCCNC(=N)N)NC(=O)[C@H](CCCNC(=N)N)NC(=O)[C@H]([C@@H](C)CC)NC1=O (stereo partly drawn) [894_3m_G4S2_K(Mal)] | 1 to 100

Same assay, conditions: measured on the naked peptide (1st to 15th amino acids, without linker) corresponding to the listed linker-attached peptide; read-out: KD value of binding to hTfR by SPR

Compound | Kd [nM]
CC[C@H](C)[C@@H]1NC(=O)[C@H](Cc2ccc(O)cc2)NC(=O)[C@H](Cc2ccc(O)cc2)NC(=O)[C@H](CC(N)=O)NC(=O)[C@H](Cc2c[nH]c3ccccc23)N(C)C(=O)[C@H](C(C)C)NC(=O)[C@H](Cc2ccccc2)N(C)C(=O)[C@H](C(C)C)NC(=O)[C@H](C)NC(=O)CSC[C@@H](C(=O)NCC(=O)NCC(=O)N[C@@H](CO)C(=O)NCC(=O)N[C@@H](CCC(=O)O)C(=O)N[C@@H](CO)C(=O)N[C@@H](CCCCNC(=O)C2CCC(CN3C(=O)C=CC3=O)CC2)C(N)=O)NC(=O)[C@H](Cc2ccc(O)cc2)N(C)C(=O)[C@H](Cc2ccc(O)cc2)NC(=O)[C@H](CCCNC(=N)N)NC(=O)[C@H](CCCNC(=N)N)NC(=O)[C@H]([C@@H](C)CC)NC1=O (stereo partly drawn) [894_3m_5m_GGSGES_K(Mal)] | 1 to 100
CC[C@H](C)[C@@H]1NC(=O)[C@H](Cc2ccc(O)cc2)NC(=O)[C@H](Cc2ccc(O)cc2)NC(=O)[C@H](CC(N)=O)NC(=O)[C@H](Cc2c[nH]c3ccccc23)NC(=O)[C@H](C(C)C)NC(=O)[C@H](Cc2ccccc2)N(C)C(=O)[C@H](C(C)C)NC(=O)[C@H](C)NC(=O)CSC[C@@H](C(=O)NCC(=O)NCC(=O)N[C@@H](CCCNC(=N)N)C(=O)NCC(=O)N[C@@H](CCCNC(=N)N)C(=O)N[C@@H](CO)C(=O)N[C@@H](CCCCNC(=O)C2CCC(CN3C(=O)C=CC3=O)CC2)C(N)=O)NC(=O)[C@H](Cc2ccc(O)cc2)N(C)C(=O)[C@H](Cc2ccc(O)cc2)NC(=O)[C@H](CCCNC(=N)N)NC(=O)[C@H](CCCNC(=N)N)NC(=O)[C@H]([C@@H](C)CC)NC1=O (stereo partly drawn) [894_3m_GGRGRS_K(Mal)] | 1 to 100
CC[C@H](C)[C@@H]1NC(=O)[C@H](Cc2ccc(O)cc2)NC(=O)[C@H](Cc2ccc(O)cc2)NC(=O)[C@H](CC(N)=O)NC(=O)[C@H](Cc2c[nH]c3ccccc23)NC(=O)[C@H](C(C)C)NC(=O)[C@H](Cc2ccccc2)N(C)C(=O)[C@H](C(C)C)NC(=O)[C@H](C)NC(=O)CSC[C@@H](C(=O)NCC(=O)NCC(=O)N[C@H](CCC(=O)O)C(=O)NCC(=O)NCC(=O)N[C@H](CCC(=O)O)C(=O)NCC(=O)NCC(=O)N[C@H](CCC(=O)O)C(=O)NCC(=O)NCC(=O)N[C@H](CCCCNC(=O)C2CCC(CN3C(=O)C=CC3=O)CC2)C(N)=O)NC(=O)[C@H](Cc2ccc(O)cc2)N(C)C(=O)[C@H](Cc2ccc(O)cc2)NC(=O)[C@H](CCCNC(=N)N)NC(=O)[C@H](CCCNC(=N)N)NC(=O)[C@H]([C@@H](C)CC)NC1=O (stereo partly drawn) [894_3m_Linke04_dk(Mal)] | 1 to 100
CC[C@H](C)[C@@H]1NC(=O)[C@H](Cc2ccc(O)cc2)NC(=O)[C@H](Cc2ccc(O)cc2)NC(=O)[C@H](CC(N)=O)NC(=O)[C@H](Cc2c[nH]c3ccccc23)N(C)C(=O)[C@H](C(C)C)NC(=O)[C@H](Cc2ccccc2)NC(=O)[C@H](C(C)C)NC(=O)[C@H](C)NC(=O)CSC[C@@H](C(=O)NCC(=O)NCC(=O)N[C@@H](CCC(=O)O)C(=O)N[C@@H](CO)C(=O)N[C@@H](CCC(=O)O)C(=O)N[C@@H](CO)C(=O)N[C@@H](CCCCNC(=O)C2CCC(CN3C(=O)C=CC3=O)CC2)C(N)=O)NC(=O)[C@H](Cc2ccc(O)cc2)N(C)C(=O)[C@H](Cc2ccc(O)cc2)NC(=O)[C@H](CCCNC(=N)N)NC(=O)[C@H](CCCNC(=N)N)NC(=O)[C@H]([C@@H](C)CC)NC1=O (stereo partly drawn) [894_5m_GGESES_K(Mal)] | < 1
CC[C@H](C)[C@@H]1NC(=O)[C@H](Cc2ccc(O)cc2)NC(=O)[C@H](Cc2ccc(O)cc2)NC(=O)[C@H](CC(N)=O)NC(=O)[C@H](Cc2c[nH]c3ccccc23)N(C)C(=O)[C@H](C(C)C)NC(=O)[C@H](Cc2ccccc2)NC(=O)[C@H](C(C)C)NC(=O)[C@H](C)NC(=O)CSC[C@@H](C(=O)NCC(=O)NCC(=O)N[C@@H](CCCNC(=N)N)C(=O)N[C@@H](CO)C(=O)N[C@@H](CCC(=O)O)C(=O)N[C@@H](CO)C(=O)N[C@@H](CCCCNC(=O)C2CCC(CN3C(=O)C=CC3=O)CC2)C(N)=O)NC(=O)[C@H](Cc2ccc(O)cc2)N(C)C(=O)[C@H](Cc2ccc(O)cc2)NC(=O)[C@H](CCCNC(=N)N)NC(=O)[C@H](CCCNC(=N)N)NC(=O)[C@H]([C@@H](C)CC)NC1=O (stereo partly drawn) [894_5m_GGRSES_K(Mal)] | < 1
CC[C@H](C)[C@@H]1NC(=O)[C@H](Cc2ccc(O)cc2)NC(=O)[C@H](Cc2ccc(O)cc2)NC(=O)[C@H](CC(N)=O)NC(=O)[C@H](Cc2c[nH]c3ccccc23)N(C)C(=O)[C@H](C(C)C)NC(=O)[C@H](Cc2ccccc2)NC(=O)[C@H](C(C)C)NC(=O)[C@H](C)NC(=O)CSC[C@@H](C(=O)NCC(=O)NCC(=O)N[C@@H](CO)C(=O)NCC(=O)N[C@@H](CCC(=O)O)C(=O)N[C@@H](CO)C(=O)N[C@@H](CCCCNC(=O)C2CCC(CN3C(=O)C=CC3=O)CC2)C(N)=O)NC(=O)[C@H](Cc2ccc(O)cc2)N(C)C(=O)[C@H](Cc2ccc(O)cc2)NC(=O)[C@H](CCCNC(=N)N)NC(=O)[C@H](CCCNC(=N)N)NC(=O)[C@H]([C@@H](C)CC)NC1=O (stereo partly drawn) [894_5m_GGSGES_K(Mal)] | < 1
CC[C@H](C)[C@@H]1NC(=O)[C@H](Cc2ccc(O)cc2)NC(=O)[C@H](Cc2ccc(O)cc2)NC(=O)[C@H](CC(N)=O)NC(=O)[C@H](Cc2c[nH]c3ccccc23)N(C)C(=O)[C@H](C(C)C)NC(=O)[C@H](Cc2ccccc2)NC(=O)[C@H](C(C)C)NC(=O)[C@H](C)NC(=O)CSC[C@@H](C(=O)NCC(=O)N[C@@H](CO)C(=O)N[C@@H](CO)C(=O)NCC(=O)N[C@@H](CO)C(=O)N[C@@H](CO)C(=O)N[C@@H](CCCCNC(=O)C2CCC(CN3C(=O)C=CC3=O)CC2)C(N)=O)NC(=O)[C@H](Cc2ccc(O)cc2)N(C)C(=O)[C@H](Cc2ccc(O)cc2)NC(=O)[C@H](CCCNC(=N)N)NC(=O)[C@H](CCCNC(=N)N)NC(=O)[C@H]([C@@H](C)CC)NC1=O (stereo partly drawn) [894_5m_GSSGSS_K(Mal)] | < 1

Same assay, conditions: naked peptide (1st to 15th amino acids, without linker part) corresponding to the listed linker-attached peptide; read-out: SPR of naked peptide (KD for binding to hTfR)

Compound | Kd [nM]
CC[C@H](C)[C@@H]1NC(=O)[C@H](Cc2ccc(O)cc2)NC(=O)[C@H](Cc2ccc(O)cc2)NC(=O)[C@H](CC(N)=O)NC(=O)[C@H](Cc2c[nH]c3ccccc23)NC(=O)[C@H](C(C)C)NC(=O)[C@H](Cc2ccccc2)N(C)C(=O)[C@H](C(C)C)NC(=O)[C@H](C)NC(=O)CSC[C@@H](C(=O)NCC(=O)NCC(=O)N[C@@H](CCC(N)=O)C(=O)NCC(=O)N[C@@H](CCC(N)=O)C(=O)N[C@@H](CO)C(=O)NCC(=O)NCC(=O)N[C@@H](CCC(N)=O)C(=O)NCC(=O)N[C@@H](CCC(N)=O)C(=O)N[C@@H](CO)C(=O)NCCCC(=O)ON2C(=O)CCC2=O)NC(=O)[C@H](Cc2ccc(O)cc2)N(C)C(=O)[C@H](Cc2ccc(O)cc2)NC(=O)[C@H](CCCNC(=N)N)NC(=O)[C@H](CCCNC(=N)N)NC(=O)[C@H]([C@@H](C)CC)NC1=O [894_3m_GGQGQSx2_gAbu(NHS)] ({CH2CO}-AV[NMeF]VWNYYIIRRY[NMeY]CGGQGQSGGQGQS[GABA]-OSu; thioether N-15) | 1 to 100
CC[C@H](C)[C@@H]1NC(=O)[C@H](Cc2ccc(O)cc2)NC(=O)[C@H](Cc2ccc(O)cc2)NC(=O)[C@H](CC(N)=O)NC(=O)[C@H](Cc2c[nH]c3ccccc23)N(C)C(=O)[C@H](C(C)C)NC(=O)[C@H](Cc2ccccc2)NC(=O)[C@H](C(C)C)NC(=O)[C@H](C)NC(=O)CSC[C@@H](C(=O)NCCOCCOCCOCCOCCOCCOCCOCCOCCC(=O)N[C@@H](CCCCNC(=O)C2CCC(CN3C(=O)C=CC3=O)CC2)C(N)=O)NC(=O)[C@H](Cc2ccc(O)cc2)N(C)C(=O)[C@H](Cc2ccc(O)cc2)NC(=O)[C@H](CCCNC(=N)N)NC(=O)[C@H](CCCNC(=N)N)NC(=O)[C@H]([C@@H](C)CC)NC1=O (stereo partly drawn) [894_5m_PEG08_K(Mal)] | < 1
CC[C@H](C)[C@@H]1NC(=O)[C@H](Cc2ccc(O)cc2)NC(=O)[C@H](Cc2ccc(O)cc2)NC(=O)[C@H](CC(N)=O)NC(=O)[C@H](Cc2c[nH]c3ccccc23)NC(=O)[C@H](C(C)C)NC(=O)[C@H](Cc2ccccc2)N(C)C(=O)[C@H](C(C)C)NC(=O)[C@H](C)NC(=O)CSC[C@@H](C(=O)NCC(=O)NCC(=O)NCC(=O)NCC(=O)N[C@@H](CO)C(=O)N[C@@H](CO)C(=O)N[C@@H](CCCCn2cc(CN3C(=O)C=CC3=O)nn2)C(N)=O)NC(=O)[C@H](Cc2ccc(O)cc2)N(C)C(=O)[C@H](Cc2ccc(O)cc2)NC(=O)[C@H](CCCNC(=N)N)NC(=O)[C@H](CCCCN)NC(=O)[C@H]([C@@H](C)CC)NC1=O [894_11K_3MeF_G4S2_KTrzMal] | 1 to 100
CC[C@H](C)[C@@H]1NC(=O)[C@H](Cc2ccc(O)cc2)NC(=O)[C@H](Cc2ccc(O)cc2)NC(=O)[C@H](CC(N)=O)NC(=O)[C@H](Cc2c[nH]c3ccccc23)N(C)C(=O)[C@H](C(C)C)NC(=O)[C@H](Cc2ccccc2)N(C)C(=O)[C@H](C(C)C)NC(=O)[C@H](C)NC(=O)CSC[C@@H](C(=O)NCC(=O)NCC(=O)NCC(=O)NCC(=O)N[C@@H](CO)C(=O)N[C@@H](CO)C(=O)N[C@@H](CCCCn2cc(CN3C(=O)C=CC3=O)nn2)C(N)=O)NC(=O)[C@H](Cc2ccc(O)cc2)N(C)C(=O)[C@H](Cc2ccc(O)cc2)NC(=O)[C@H](CCCNC(=N)N)NC(=O)[C@H](CCCCN)NC(=O)[C@H]([C@@H](C)CC)NC1=O [894_11K_3Me_5Me_G4S2_KTrzMal] | 1 to 100

— patent US20240366775A1, “HUMAN TRANSFERRIN RECEPTOR BINDING ANTIBODY-PEPTIDE CONJUGATE” (PEPTIDREAM INC., priority 2021, published 2024)
